Source: US9365853B2, “Matriptase inhibitors and uses thereof against orthomyxoviridae infections” (priority 2011, dated 2016)
Like-named read-outs stand apart in the source and are kept apart here. Where a SMILES comes first, the peptide text is derived from it. The star is where a group is joined. X1 = N=C(N)NCCC[C@@H](N*)C(=O)c1nc2ccccc2s1; CH2Cl = ClC*

Key:
matriptase [1] = target: T1, matriptase (Homo sapiens (Human), UniProt Q9Y5Y6); experiment: Ki determination for matriptase (Morrison tight-binding or mixed model, fluorogenic Boc-Gln-Ala-Arg-AMC); assay type: biochemical; conditions: for reduced potency (lower inhibition) compared to compound 1: matriptase Ki relative to compound 1
[2] = target: Recombinant purified human matriptase (amino acids 596-855) (Homo sapiens (Human), UniProt Q9Y5Y6); experiment: biochemical; assay type: biochemical
matriptase [3] = target: T1, matriptase; experiment: siRNA knock-down of matriptase protein expression in Calu-3 cells (Western blot, densitometry); assay type: cell-based; conditions: Calu-3, 50 nmol siRNA, 1.5 μl Lipofectamine RNAiMAX, 48 h after transfection
Description: Using RNA interference technology, siRNAs specific to human matriptase were targeted in these cells. Calu-3 cells were transfected with two different siRNAs (50 nmol, S1: s13520 (Ambion) Silencer® Select siRNAs gene symbol ST14; S2: EHU012511 (Sigma-Aldrich) MISSION® esiRNA targeting human ST14 (esiRNA1)) targeted toward matriptase mRNA (target sequence of EHU012511: […] […] […] […] (SEQ ID NO:5)) using various concentrations of Lipofectamine RNAiMAX™ (0.5 to 1.5 μl). Scrambled siRNAs were used as controls. 48 h after transfection, cellular protein extracts were prepared. Extracts were subjected to polyacrylamide gel electrophoresis (SDS-PAGE) and transferred to nitrocellulose membranes. Membranes were probed for matriptase protein expression using a rabbit anti-human matriptase-specific antibody. Membranes were blocked using non-fat dry milk in Tris-Buffered Saline (TBS) with Tween™ 20. Membranes were then labeled with a rabbit anti-human matriptase-specific antibody (Bethyl Laboratories Inc.).

matriptase [4] = target: T1, matriptase; experiment: Matriptase inhibition in cellulo (HEK293 transfected with pcDNA3.1-matriptase, activity in media); assay type: cell-based; conditions: HEK293, 24 h incubation, read-out: inhibition of matriptase activity in cultured cells
Description: Human embryonic kidney cells (HEK293) were transfected with 6 μg of pcDNA3.1™ (Mock) or pcDNA3.1™-matriptase (Matriptase) using Lipofectamine 2000™ reagent (Invitrogen) in 10-cm plates. […] After 24 h incubation, media was incubated with Boc-Gln-Ala-Arg-AMC substrate (50 μM) and fluorescence measured for 20 minutes at 37° C. Enzyme activity was determined in terms of released fluorescence units per minutes per μl of media for each condition.

[5] = tested on: influenza A/Puerto Rico/8/34 virus; assay type: cell-based, influenza A/Puerto Rico/8/34 virus (PR8)
furin = furin (Homo sapiens (Human), UniProt P09958); experiment: Ki determination, selectivity profile: furin (Boc-Arg-Arg-Val-Arg-AMC); assay type: biochemical; conditions: furin (protease #7); NI = no inhibition, 10 μM
[6] = tested on: influenza A/Puerto Rico/8/34; assay type: cell-based, influenza A/Puerto Rico/8/34 (H1N1)
[7] = tested on: influenza A/Puerto Rico/8/34 virus; assay type: cell-based, influenza A/Puerto Rico/8/34 virus (PR8); remark: listed apart in the source
matriptase [8] = target: T1, matriptase; experiment: Dissociation of enzyme:inhibitor complex by dilution recovery experiments; assay type: biochemical; conditions: matriptase 0.5 μM pre-incubated 20 minutes, diluted 1:2000
Description: Dissociation of the enzyme-inhibitor (EI) complex was investigated using dilution recovery experiments. […] Complexes were rapidly (1:2000) diluted in a reaction buffer containing 400 μM of Boc-Gln-Ala-Arg-AMC (˜7 times Km). Activity was continuously recorded for 75 minutes and fluorescence plotted as a function of time.

Sequence of Recombinant purified human matriptase (amino acids 596-855) (Q9Y5Y6 596-855 limits assumed): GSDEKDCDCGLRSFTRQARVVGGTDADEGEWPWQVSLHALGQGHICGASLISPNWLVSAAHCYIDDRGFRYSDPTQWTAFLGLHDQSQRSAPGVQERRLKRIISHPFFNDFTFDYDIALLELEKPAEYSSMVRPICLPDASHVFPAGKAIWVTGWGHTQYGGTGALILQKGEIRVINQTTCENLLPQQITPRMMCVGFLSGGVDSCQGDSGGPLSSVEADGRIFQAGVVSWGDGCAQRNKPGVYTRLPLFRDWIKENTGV
Sequence of furin (P09958 108-794 limits assumed): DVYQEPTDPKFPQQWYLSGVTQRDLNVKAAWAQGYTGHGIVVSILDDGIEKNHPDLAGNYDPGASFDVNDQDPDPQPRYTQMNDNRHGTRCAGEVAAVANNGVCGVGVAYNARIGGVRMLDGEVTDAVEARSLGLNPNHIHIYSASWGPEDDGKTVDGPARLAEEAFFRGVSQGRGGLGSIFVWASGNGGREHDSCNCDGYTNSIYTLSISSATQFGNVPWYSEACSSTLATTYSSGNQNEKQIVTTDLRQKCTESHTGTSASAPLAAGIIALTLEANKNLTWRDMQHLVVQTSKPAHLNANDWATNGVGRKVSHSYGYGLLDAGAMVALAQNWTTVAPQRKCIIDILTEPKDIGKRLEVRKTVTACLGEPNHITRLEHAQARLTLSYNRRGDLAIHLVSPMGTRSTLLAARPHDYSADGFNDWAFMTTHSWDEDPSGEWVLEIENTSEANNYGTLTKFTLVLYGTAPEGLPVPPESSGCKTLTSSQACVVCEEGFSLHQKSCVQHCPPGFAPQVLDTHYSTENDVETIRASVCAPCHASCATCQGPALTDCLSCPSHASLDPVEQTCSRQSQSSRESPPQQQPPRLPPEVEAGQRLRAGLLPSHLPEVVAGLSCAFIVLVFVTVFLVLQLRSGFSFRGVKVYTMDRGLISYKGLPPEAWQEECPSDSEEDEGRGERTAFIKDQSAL

## CC(NC(=O)C(CCC(N)=O)NC(=O)C(N)CCCNC(=N)N)C(=O)NC(CCCCN)C(=O)c1nc2ccccc2s1 (centres unmarked) [Compound 3, N-(1-{[6-amino-1-(1,3-benzothiazol-2-yl)-1-oxohexan-2-yl]carbamoyl}ethyl)-2-(2-amino-5-carbamimidamidopentanamido)pentanediamide]
Matriptase [1]
  decrease of the Ki relative to compound 1: about 3 orders of magnitude
[2]; read-out: inhibition of matriptase activity
  inhibition at 1 µM: ~25%

## CC(NC(=O)C(CCC(N)=O)NC(=O)C(N)CCCNC(=N)N)C(=O)NC(CCCNC(=N)N)C(O)c1nc2ccccc2s1 (centres unmarked) [Compound 2, 2-(2-amino-5-carbamimidamidopentanamido)-N-(1-{[1-(1,3-benzothiazol-2-yl)-5-carbamimidamido-1-hydroxypentan-2-yl]carbamoyl}ethyl)pentanediamide]
Matriptase [3]
  matriptase protein expression: significantly blocked

## C[C@H](NC(=O)[C@H](CCC(N)=O)NC(=O)[C@@H](N)CCCNC(=N)N)C(=O)N[C@@H](CCCNC(=N)N)C(O)c1nc2ccccc2s1 (mixture of isomers) [Compound 2, 2-(2-amino-5-carbamimidamidopentanamido)-N-(1-{[1-(1,3-benzothiazol-2-yl)-5-carbamimidamido-1-hydroxypentan-2-yl]carbamoyl}ethyl)pentanediamide]
Matriptase [1]
  Ki: 6.1 µM

## C[C@H](NC(=O)[C@H](CCC(N)=O)NC(=O)[C@@H](N)CCCNC(=N)N)C(=O)N[C@@H](CC(=O)O)C(=O)N[C@H](CCCNC(=N)N)C(=O)c1nc2ccccc2s1 [Compound 7] (H-RQAD-X1)
Matriptase [1]
  reduced potency (lower inhibition) compared to compound 1: 400 fold

## C[C@H](NC(=O)[C@H](CCC(N)=O)NC(=O)[C@@H](N)CCCNC(=N)N)C(=O)N[C@@H](CCCNC(=N)N)C(=O)c1nc2ccccc2s1 [Compound 1, RQAR-ketobenzothiazole]
Matriptase [4]; 1 μM
  inhibition at 1 µM: ~50%
Matriptase [4]; 10 μM
  inhibition at 10 µM: ~100%
[2]
  inhibition of matriptase activity: almost completely
[5]; 1 μM
  influenza replication supported by matriptase: completely abrogate
[5]; 10 μM
  influenza replication supported by matriptase: completely abrogate
furin
  Ki (nM): no inhibition
[6]
  block of influenza replication: more than 50%
[7]
  effect on influenza replication with trypsin as the activating protease: no effect

## CC(=O)NC(CCCNC(=N)N)C(=O)c1nc2ccccc2s1 (centres unmarked) [Compound 6, N-[1-(1,3-benzothiazol-2-yl)-5-carbamimidamido-1-oxopentan-2-yl]acetamide]
Matriptase [1]
  Ki: 0.457 µM
  reduced potency (lower inhibition) compared to compound 1: over 30,000 fold
Matriptase [1]; matriptase
  mode of inhibition: mixed mode of inhibition

## N=C(N)NCCC[C@H](NC(=O)CNC(=O)[C@@H](N)CCC(=O)O)C(=O)CCl [EGR-CMK, Glu-Gly-Arg chloromethyl ketone] (H-Glu-Gly-Arg-CH2Cl)
Matriptase [8]
  dissociation of enzyme:inhibitor complex (reversibility): irreversible inhibition
